One series deals with hKv1.1 channel. Briefly: whole-cell patch clamp, hKv1.1 channel currents. The settings on record: 1 µM, n ≥ 3. Format: cell-based, human. The text has this: (§1) The source of potassium channel plasmids was described in detail in previous articles. The cDNA encoding hKv1.1 channel, hKv1.3 channel, and rKv4.3 channel were subcloned into the vector of pCDNA3.1(+). The cDNA encoding hKv1.2 channel, hKv1.6 channel, hKv3.2 channel, hERG channel, and mKv4.1 channel were subcloned into the vector of pIRES2-EGFP. The cDNA encoding rKv4.2 was subcloned into the vector of pEGFP-N1.
(§2) DMEM (Gibco, Pittsburgh, PA, USA) with 10% fetal bovine serum and 1% penicillin/streptomycin was applied to culture HEK293T cells in an incubator with 5% CO2 at 37 °C. According to the manufacturer’s instructions, ExFect Transfection Reagent (Vazyme, Nanjing, China) was used to co-transfect the plasmids of pEGFP-N1 and potassium channels into HEK293T cells. Fluorescence-positive cells were selected for electrophysiological experiments after transfection for 12 h to 24 h.
(§3) Whole-cell channel currents were measured and recorded by an EPC-10 patch-clamp amplifier controlled by PatchMaster (HEKA Elektronik, Lambrecht, Germany). The internal patch pipette solution and bath solution were prepared according to the protocol in previously published references. […] The currents of different potassium channels were generated and recorded following the respective protocols according to previously published references. […]
In general terms: Patch clamp records ionic current or voltage across a cell membrane.

A further series addresses T1, hKv1.3 channel (Homo sapiens, UniProt P22001).
T1 construct: expressed in transfected cells
Briefly: whole-cell patch clamp, hKv1.3 channel currents. The settings on record: for IC50: peak tail current, Hill equation fit. Format: cell-based.
Description: as §1, §2
(§4) Whole-cell channel currents were measured and recorded by an EPC-10 patch-clamp amplifier controlled by PatchMaster (HEKA Elektronik, Lambrecht, Germany). The internal patch pipette solution and bath solution were prepared according to the protocol in previously published references. Bath solution with 0.01% BSA (Gibco, Pittsburgh, PA, USA) was used to dissolve peptides for electrophysiological testing. The external recording bath solution was exchanged by the MPS-2 multichannel microperfusion system (INBIO Inc., Wuhan, China). The currents of different potassium channels were generated and recorded following the respective protocols according to previously published references. The results of the electrophysiological experiment are presented as the mean ± SE, and more than three cells from each sample were examined (n ≥ 3).
(§5) The software of Clampfit (Molecular Devices, Sunnyvale, CA, USA) and Sigmaplot (IBM SPSS, Chicago, IL, USA) were applied to analyze the electrophysiological data. In order to obtain IC50 values, the concentrations of peptides and currents of potassium channels were used to fit the modified Hill equation for dose–response relationships: Ipeptide/Icontrol = 1/[1 + Cpeptide/IC50], in which Ipeptide and Icontrol represent the peak tail current of potassium channels in the presence and absence of peptide, Cpeptide represents the concentration of peptides and IC50 represents the half-maximum inhibition concentration. The results are presented as the mean ± SE.

Another series concerns the target T2, hKv1.2 channel (Homo sapiens, UniProt P16389).
T2 construct: expressed in transfected cells
Description: whole-cell patch clamp, hKv1.2 channel currents. Format: cell-based. The conditions noted are these: for IC50: peak tail current, Hill equation fit.
Description: as §1, §2, §4, §5

A further series concerns mKv4.3 channel. Briefly: whole-cell patch clamp, mKv4.3 channel currents. It counts as cell-based, mouse. The settings on record: 1 µM, transiently transfected HEK293 cells, mean ± SE, n ≥ 3.
For the next series, the system named is rKv4.1 channel. Description: whole-cell patch clamp, rKv4.1 channel currents. It counts as cell-based, rat. The settings on record: 1 µM, transiently transfected HEK293 cells, mean ± SE, n ≥ 3.
Another series relates to hKv1.6 channel. Briefly: whole-cell patch clamp, hKv1.6 channel currents. It counts as cell-based, human. The settings on record: 1 µM, transiently transfected HEK293 cells, mean ± SE, n ≥ 3.
Description: as §1, §2, §3

The next series has as its system hERG channel. Briefly: in vitro. It counts as cell-based. The settings on record: human, whole-cell patch clamp, transiently transfected HEK293 cells, mean ± SE, n ≥ 3, read-out: inhibition of hERG channel currents.
Description: as §1, §2, §3

For a further series, the system named is rKv4.2 channel. Briefly: whole-cell patch clamp, rKv4.2 channel currents. It counts as cell-based, rat. The conditions noted are these: 1 µM, transiently transfected HEK293 cells, mean ± SE, n ≥ 3.
Description: as §1, §2, §3

Another series relates to hKv3.2 channel. Description: whole-cell patch clamp, hKv3.2 channel currents. It counts as cell-based, human. The settings on record: 1 µM, transiently transfected HEK293 cells, mean ± SE, n ≥ 3.
Description: as §1, §2, §3

Setting [1] is: 1 µM, transiently transfected HEK293 cells, mean ± SE, n ≥ 3.

Peptide text beside a SMILES is read from it.

T1 sequence (P22001 whole entry): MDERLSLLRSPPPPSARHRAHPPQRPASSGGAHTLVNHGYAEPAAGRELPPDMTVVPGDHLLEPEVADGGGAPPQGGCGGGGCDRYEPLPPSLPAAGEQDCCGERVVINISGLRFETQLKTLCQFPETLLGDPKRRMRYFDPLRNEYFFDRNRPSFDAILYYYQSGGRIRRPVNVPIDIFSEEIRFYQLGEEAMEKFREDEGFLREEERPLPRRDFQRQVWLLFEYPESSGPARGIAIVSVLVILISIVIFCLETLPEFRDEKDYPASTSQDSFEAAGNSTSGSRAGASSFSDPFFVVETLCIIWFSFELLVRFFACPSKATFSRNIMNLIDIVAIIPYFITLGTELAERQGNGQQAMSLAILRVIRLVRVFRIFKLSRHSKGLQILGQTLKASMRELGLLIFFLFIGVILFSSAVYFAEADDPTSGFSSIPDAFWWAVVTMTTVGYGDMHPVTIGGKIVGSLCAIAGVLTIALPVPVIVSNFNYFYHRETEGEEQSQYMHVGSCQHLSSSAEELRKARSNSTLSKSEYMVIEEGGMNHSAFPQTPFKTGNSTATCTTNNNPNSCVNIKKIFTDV
T2 sequence (P16389 whole entry): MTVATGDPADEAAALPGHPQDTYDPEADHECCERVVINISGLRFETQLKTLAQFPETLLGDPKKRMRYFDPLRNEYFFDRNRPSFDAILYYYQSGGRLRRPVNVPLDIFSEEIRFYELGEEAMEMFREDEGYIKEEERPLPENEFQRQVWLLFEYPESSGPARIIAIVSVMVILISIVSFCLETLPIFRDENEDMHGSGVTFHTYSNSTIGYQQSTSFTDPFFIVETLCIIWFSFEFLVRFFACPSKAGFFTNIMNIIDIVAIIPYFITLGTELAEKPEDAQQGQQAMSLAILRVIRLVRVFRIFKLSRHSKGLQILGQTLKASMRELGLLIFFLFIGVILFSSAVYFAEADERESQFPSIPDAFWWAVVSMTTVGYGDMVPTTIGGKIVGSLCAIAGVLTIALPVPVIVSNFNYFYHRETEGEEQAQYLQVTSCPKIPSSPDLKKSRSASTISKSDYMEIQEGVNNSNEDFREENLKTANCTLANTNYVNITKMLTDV

Take `CSCC[C@@H]1NC(=O)[C@@H]2CSSC[C@H](NC(=O)[C@@H](N)CCCCN)C(=O)N[C@@H]([C@@H](C)O)C(=O)N[C@@H](C)C(=O)N[C@@H](CO)C(=O)N[C@@H](CCCCN)C(=O)N[C@@H](CCC(N)=O)C(=O)N[C@H]3CSSC[C@H](NC(=O)[C@H](CCCCN)NC(=O)CNC(=O)[C@H](CC(N)=O)NC1=O)C(=O)N[C@@H](CCCNC(=N)N)C(=O)N[C@H](C(=O)N[C@@H](Cc1ccc(O)cc1)C(=O)O)CSSC[C@H](NC(=O)[C@H](C(C)C)NC(=O)[C@@H]1CCCN1C(=O)[C@H](Cc1c[nH]c4ccccc14)NC3=O)C(=O)N[C@@H](CCCCN)C(=O)N[C@@H](CCC(N)=O)C(=O)N[C@@H](CCSC)C(=O)N[C@@H](Cc1ccccc1)C(=O)NCC(=O)N[C@@H](CCCCN)C(=O)N1CCC[C@H]1C(=O)N[C@@H](CC(N)=O)C(=O)NCC(=O)N[C@@H](CCCCN)C(=O)N2` [rBmTX4-P1] (HELM PEPTIDE1{K.C.T.A.S.K.Q.C.W.P.V.C.K.Q.M.F.G.K.P.N.G.K.C.M.N.G.K.C.R.C.Y}$PEPTIDE1,PEPTIDE1,2:R3-23:R3|PEPTIDE1,PEPTIDE1,8:R3-28:R3|PEPTIDE1,PEPTIDE1,12:R3-30:R3$$$V2.0; C-terminus assumed; bridges inferred): the “effect on hKv1.1 channel current (in words)” value with hKv1.1 channel is reported as “hardly inhibited the hKv1.1 channel current”. Besides, the “inhibition of hKv1.3 channel current (in words)” value against hKv1.3 channel (1 µM) is “inhibited the currents of the hKv1.2 and hKv1.3 channels with high affinities”. For the same molecule, the IC50 – broadly, the concentration at which inhibition is half-maximal – against hKv1.3 channel (mean ± SE, n ≥ 3) was 0.247 ± 0.0479 µM; against hKv1.2 channel (mean ± SE, n ≥ 3) it was 0.0457 ± 0.0092 µM. The “inhibition of hKv1.2 channel current (in words)” value on hKv1.2 channel (1 µM) was “inhibited the currents of the hKv1.2 and hKv1.3 channels with high affinities”.

As for `CSCC[C@@H]1NC(=O)[C@@H]2CSSC[C@H](NC(=O)[C@@H](N)CCCCN)C(=O)N[C@@H]([C@@H](C)O)C(=O)N[C@@H](C)C(=O)N[C@@H](CO)C(=O)N[C@@H](CCCCN)C(=O)N[C@@H](CCC(N)=O)C(=O)N[C@H]3CSSC[C@H](NC(=O)[C@H](CCCCN)NC(=O)CNC(=O)[C@H](CC(N)=O)NC1=O)C(=O)N[C@@H](CCCNC(=N)N)C(=O)N[C@H](C(=O)N[C@@H](Cc1ccc(O)cc1)C(=O)O)CSSC[C@H](NC(=O)[C@H](C(C)C)NC(=O)[C@@H]1CCCN1C(=O)[C@H](Cc1c[nH]c4ccccc14)NC3=O)C(=O)N[C@@H](CCCCN)C(=O)N[C@@H](CCC(N)=O)C(=O)N[C@@H](CCSC)C(=O)N[C@@H](Cc1ccccc1)C(=O)NCC(=O)N[C@@H](CCCCN)C(=O)N1CCC[C@H]1C(=O)N[C@@H](CC(N)=O)C(=O)NCC(=O)N[C@@H](CCCCN)C(=O)N2` [sBmTX4-P1] (HELM PEPTIDE1{K.C.T.A.S.K.Q.C.W.P.V.C.K.Q.M.F.G.K.P.N.G.K.C.M.N.G.K.C.R.C.Y}$PEPTIDE1,PEPTIDE1,2:R3-23:R3|PEPTIDE1,PEPTIDE1,8:R3-28:R3|PEPTIDE1,PEPTIDE1,12:R3-30:R3$$$V2.0; N-terminus and C-terminus assumed; bridges inferred), in the series with mKv4.3 channel, the “inhibition of mKv4.3 channel currents” value is 6.8 ± 2.8%. Also, in the series with rKv4.1 channel, the “inhibition of rKv4.1 channel currents” value worked out at 7.0 ± 1.8%. For the same molecule, the “inhibition of hKv1.6 channel currents” value with hKv1.6 channel stood at 18.3 ± 4.3%. Moreover, the inhibition (in general, how much of the control response was suppressed) at 1 µM in the series on hERG channel turned out to be 35.7 ± 2.1%; at hKv1.3 channel (setting [1]) it was 73.1 ± 2.8%; against hKv1.2 channel (setting [1]) it was 88.4 ± 2%. The “inhibition of hKv1.1 channel currents” value in the series with hKv1.1 channel (transiently transfected HEK293 cells, mean ± SE) came to 5.9 ± 1.5%. For the same molecule, the inhibition at 0.008 µM at hKv1.3 channel (8 nM, mean ± SE, n ≥ 3, read-out: inhibition rate of hKv1.3 channel current) stood at 13.6 ± 3.7%; on hKv1.2 channel (8 nM, mean ± SE, n ≥ 3, read-out: inhibition rate of hKv1.2 channel current), 13.5 ± 1.6%. In addition, the inhibition at 0.04 µM on hKv1.3 channel (40 nM, mean ± SE, n ≥ 3, read-out: inhibition rate of hKv1.3 channel current) was found to be 32.6 ± 5.3%; at hKv1.2 channel (40 nM, mean ± SE, n ≥ 3, read-out: inhibition rate of hKv1.2 channel current), 40.2 ± 3.7%. In addition, the inhibition at 0.2 µM at hKv1.3 channel (200 nM, mean ± SE, n ≥ 3, read-out: inhibition rate of hKv1.3 channel current) came to 60.7 ± 2.9%; at hKv1.2 channel (200 nM, mean ± SE, n ≥ 3, read-out: inhibition rate of hKv1.2 channel current), 66 ± 6.3%. Further, the IC50 on hKv1.3 channel (mean ± SE, n ≥ 3) is 0.124 ± 0.0267 µM; at hKv1.2 channel (mean ± SE, n ≥ 3), 0.0747 ± 0.007 µM. Also, the “inhibition of rKv4.2 channel currents” value in the series on rKv4.2 channel is 6.9 ± 4.6%. Further, the “inhibition of hKv3.2 channel currents” value in the series with hKv3.2 channel came to 5.3 ± 3.1%.

(Values after publication PMC10223454, “Functional Characterization of a New Degradation Peptide BmTX4-P1 from Traditional Chinese Scorpion Medicinal Material” (Toxins, 2023).)
